{
  "source": "patent US6583114B2",
  "about": "“Fracture healing using pthrp analogs” (Roche Palo Alto LLC, priority 1997, dated 2003)",
  "molecules": {"B1": {"name": "parathyroid hormone (protein, UniProt P01270 32-115, looked up)", "Parathyroid hormone": "SVSEIQLMHNLGKHLNSMERVEWLRKKLQDVHNFVALGAPLAPRDAGSQRPRKKEDNVLVESHEKSLGEADKADVNVLTKAKSQ", "modifications": "Parathyroid hormone recombinant", "notes": "Recombinant human (1-84) parathyroid hormone, per the cited Kim et al. titles"}},
  "key": {"segmental femoral defect": {"test_system": "segmental femoral defect", "assay": "Segmental femoral defect rat fracture model (Example 1)", "type": "in vivo", "conditions": "for bone growth in the defects (weekly radiographic density of segmented bone defect) relative to control: FIG. 1, after four weeks of treatment; for bone growth in the defects (weekly radiographic density of segmented bone defect) relative to control / bone healing and fracture repair, treated versus control animals: subcutaneous daily; for radiographic density ratio of the segmented bone to the contralateral femur: FIG. 2, after six weeks of treatment, relative to control treated rats; for bone healing and fracture repair, treated versus control animals: radiography, sacrifice at 6 weeks", "procedure": "T. A. Einhorn et al. “The Healing of Segmented Bone Defects Induced by Demineralized Bone Matrix. A Radiographic and Biomechanical Study,” J. Bone Joint, 66:274-279 (1984.\nAdult male Sprague-Dawley rats weighing about 300 grams were maintained on Laboratory Rodent Diet 5001 (PMI Feeds, St. Louis, Mo.) and water ad libitum. All rats received only water for 12 hours prior to surgery. The animals were anesthetized prior to surgery by IP injection with ketamine (80 mg/kg) and xylazine (5 mg/kg). A single dose of procaine penicillin was given intramuscularly for prophylaxis against infection.\nA lateral approach to the femur was used and a pre-drilled high density polyethylene plate was fixed along the anterior cortex of the femur. During this placement the periosteum of the femur was extensively stripped. A […] non-critical sized segmental defect was created in the mid portion of the femur shaft. The wound was closed with nylon and chromic sutures.\nPostoperatively, the rats were placed in cages with 48 hour post-operative access to food pellets. The animals were monitored at least once daily and animals displaying any signs of illness were examined and given appropriate therapy if necessary.\nRats were divided into groups as shown in Table 1 and either a control vehicle (saline) or a PTHrP analog as described herein was administered subcutaneously daily starting on post-operative day 1. Radiographic analyses were performed weekly. Animals were sacrificed at 6 weeks and compared by radiography.\nSedated rats were placed in the prone position with hindlimbs externally rotated. Serial radiographs of each femur (involved femur and contralateral femur) were taken weekly starting with postoperative week 1. An aluminium phantom device with known density values was included in each radiograph for calibration. Each radiograph was placed on a translumination board and a picture taken using a DCS 420 digital Kodak camera. These images were then transferred to a Gateway 2000 IBM compatible computer and digitized using image analysis software (Sigma Scan©). An outline of the defect was traced and the average density of the area of the osteotomy measured in treated animals relative to control animals. […] The average density of the osteotomy was also compared to the average density of the contralateral femur for each weekly reading. […] After sacrifice (6 weeks), the femurs (experimental and contralateral) were dissected free of soft tissue. Fine grain radiographs were taken of the femurs in the lateral plane. The osteotomy was considered united when there was osseous continuity of the femur across more than 25% of the cross sectional diameter of the defect."}, "[1]": {"test_system": "intramembraneous bone defect", "assay": "Intramembraneous bone healing, drill hole defects in distal femur and proximal tibia (Example 3)", "type": "in vivo, rabbit", "conditions": "for intramembraneous bone formation relative to vehicle treated animals: 2 or 10 μg/kg/day subcutaneous daily; for femoral defects healed / tibial defects healed: day 21", "description": "Rabbits were generally anesthesized and subjected to surgery to create four surface defects, one in each distal femur and one in each proximal tibia. A posterior lateral surgical incision measuring approximately 3 cm. was made to expose the distal lateral femoral condyle. Bone proximal to the knee joint was subperiosteally exposed and a 5 mm drill hole was made, keeping the drill bit cool by constant irrigation. The wound was irrigated with normal saline. Deep tissue was closed with a running 3-0 chronic suture followed by closure of the subticular layer with a running 3-0 nylon suture and three to four interrupted stainless steel sutures. A second 3 cm. incision was made over the medial proximal tibia and a 5 mm drill hole was made in the proximal medial tibia. The wound was closed as described previously. The entire procedure was repeated on the contralateral limb.\nStock solutions of PTHrP analog C, (MAP1-10)^22-31His^26hPTHrP(1-34)NH2, and PTHRP analog D, (MAP1-10)^22-31hPTHrP(1-34)NH2, at 800 μg/ml were prepared by sterile filtration through an 0.22 micron filter and diluted in vehicle to either 20 μg/ml or 100 μg/ml just before administration. Vehicle was 30 mg/ml mannitol, 30/mg/ml sucrose, 0.12 mg/ml Tween™ 80, 0.17 mg/ml acetic acid and 2.33 mg/ml sodium acetate trihydrate. PTHrP analogs at either 2 μg/kg/day or 10 μg/kg/day was administered daily by subcutaneous injection to the surgically treated animals.\nAnimals were X-rayed weekly for the duration of the study. Densitometric measurements were made using a transilluminating scanner and MetaMorph™ (Universal Imaging, West Chester, Pa.) software. Radiographs of the lower extremities were performed in internal and external rotation on post-operative day 10 and 21. The animals were sacrificed on post-operative day 30. At the end of the study, animals were euthanized by pentobarbital overdose, tissues were harvested from the left and right femurs and tibias were analyzed by x-ray and histological analysis."}, "ulnar osteotomy": {"test_system": "ulnar osteotomy", "assay": "Ulnar osteotomy model, corticosteroid induced delayed healing (Example 4)", "type": "in vivo, rabbit", "procedure": "Adult male New Zealand White rabbits were used in all experiments. In Part I, ten rabbits were divided into two equal groups and in Part II, twenty rabbits were divided equally. Non critical sized (1 mm) defects were created bilaterally in each rabbit. From two months prior to surgery through six weeks post-operative, all rabbits received daily subcutaneous injections of either prednisone (0.15 mg/kg) in sterile water (experimental group) or sterile saline (control group). Beginning on the first post-operative day, the experimental group were administered daily sub cutaneious infections of PTHrP analog D (0.01 mg/kg), while the control group received injections of normal saline. In Part I, animals were sacrificed at six weeks after creation of the osteotomy. In Part II, animals were sacrificed once radiographic union was reached bilaterally, or in cases of non-union at ten weeks post-operative. In both sets of experiments, radiological intensity and healing area were analyzed every other week starting two weeks (Part I) or four weeks (Part II) post-operatively. Serial radiographs of the forelimbs were taken and digitized and the bone area was quantified using image analysis software (Sigma Scan Pro). Photodensitometry was used to quantitate the mineral content of the newly formed bone at sites of osteotomy and callus formation. After sacrifice, high resolution faxitron radiographs were taken of both limbs in the anteroposterior and lateral planes, allowing for analysis of fracture callus dimension and size."}, "fracture healing": {"test_system": "fracture healing", "conditions": "intermittent treatment; ovariectomized rats; Kim et al.; cited from earlier work"}, "[2]": {"conditions": "high dose group (10 μg/kg/day s.c.)"}, "[3]": {"conditions": "low dose group (2 μg/kg/day s.c.), no complete healing in controls"}},
  "data": [
    {"molecule": "(MAP1-10)^22-31Ala^19hPTHrP(1-34)NH2 [PTHrP analog B]", "values": [
      {"measurement": "bone growth in the defects (weekly radiographic density of segmented bone defect) relative to control", "setting": "segmental femoral defect", "value": "greater than in the control animals"},
      {"measurement": "radiographic density ratio of the segmented bone to the contralateral femur", "setting": "segmental femoral defect", "value": "increased bone density"}
    ]},
    {"molecule": "(MAP1-10)^22-31His^26hPTHrP(1-34)NH2 [PTHrP analog C]", "values": [
      {"measurement": "intramembraneous bone formation relative to vehicle treated animals", "setting": "[1]", "value": "accelerated intramembraneous bone formation"},
      {"measurement": "bone growth in the defects (weekly radiographic density of segmented bone defect) relative to control", "setting": "segmental femoral defect", "value": "greater than in the control animals"},
      {"measurement": "radiographic density ratio of the segmented bone to the contralateral femur", "setting": "segmental femoral defect", "value": "increased bone density"},
      {"measurement": "union of the defect in high resolution radiographs", "setting": "segmental femoral defect; FIG. 3, after treatment for six weeks, control defect remains non-united", "value": "has healed"}
    ]},
    {"molecule": "(MAP1-10)^22-31c[Lys^13, Asp^17]hPTHrP(1-34)NH2", "values": [
      {"measurement": "bone healing and fracture repair, treated versus control animals", "setting": "segmental femoral defect", "value": "accelerated bone healing and fracture repair"}
    ]},
    {"molecule": "(MAP1-10)^22-31hPTHrP(1-34)NH2 [PTHrP analog D]", "values": [
      {"measurement": "torsional strength (stiffness and maximum torque) versus vehicle-treated control limbs", "setting": "ulnar osteotomy; Part I, biomechanical", "value": "significantly greater"},
      {"measurement": "intensities at the osteotomy sites, anteroposterior and lateral faxitrons, treated versus control limbs", "setting": "ulnar osteotomy; Part I, six weeks", "value": "significantly greater"},
      {"measurement": "intensity of proximal and distal ulnar diaphyses, treated versus control limbs", "setting": "ulnar osteotomy; Part I, six weeks", "value": "significantly greater"},
      {"measurement": "intensity of the external calluses (lateral), treated versus control limbs", "setting": "ulnar osteotomy; Part I, six weeks", "value": "also greater"},
      {"measurement": "limbs that achieved union", "setting": "ulnar osteotomy; Part I, six weeks, 0.01 mg/kg daily s.c., prednisone, two out of ten in vehicle controls, FIG. 5", "value": "Nine out ten"},
      {"measurement": "area of the osteotomy versus vehicle control limbs", "setting": "ulnar osteotomy; Part II, after sacrifice", "value": "significantly smaller"},
      {"measurement": "radiographic intensity at the osteotomy site, ulnar diaphysis and callus area versus vehicle control limbs", "setting": "ulnar osteotomy; Part II, after sacrifice, p<0.05 at osteotomy site", "value": "greater radiographic intensity"},
      {"measurement": "radiographic intensity at the osteotomy site, external calluses and ulnar diaphyses versus control limbs", "setting": "ulnar osteotomy; Part II, four weeks, p<0.01 at osteotomy site", "value": "greater radiographic intensity"},
      {"measurement": "combined callus areas versus control limbs", "setting": "ulnar osteotomy; Part II, four weeks, p<0.05", "value": "greater"},
      {"measurement": "callus intensity or area versus control limbs", "setting": "ulnar osteotomy; Part II, six weeks", "value": "no differences"},
      {"measurement": "intensity at the osteotomy site versus control limbs, in vivo radiography", "setting": "ulnar osteotomy; Part II, six weeks", "value": "trend of increased intensity"},
      {"measurement": "union rate", "setting": "ulnar osteotomy; Part II, six weeks, radiographic union", "value": "complete union rate"},
      {"measurement": "intramembraneous bone formation relative to vehicle treated animals", "setting": "[1]", "value": "accelerated intramembraneous bone formation"},
      {"measurement": "tibial defects filled with mineralized tissue", "setting": "[1]; at sacrifice (day 30), high dose, radiographic analysis, p<0.01 vs control (less than 10%)", "value": "over 85%"},
      {"measurement": "percent fill of femoral defects versus control treated femoral defects", "setting": "[1]; at sacrifice, p<0.01", "value": "significant greater percent fill"},
      {"measurement": "femoral defects healed", "setting": "[1]; [2]", "value": 50, "unit": "%"},
      {"measurement": "tibial defects healed", "setting": "[1]; [2]", "value": 75, "unit": "%"},
      {"measurement": "femoral defects healed", "setting": "[1]; [3]", "value": 40, "unit": "%"},
      {"measurement": "tibial defects healed", "setting": "[1]; [3]", "value": 40, "unit": "%"}
    ]},
    {"molecule": "(MAP1-10)^22-31hSer^34PTHrP(1-34)THIQ NH2", "values": [
      {"measurement": "bone healing and fracture repair, treated versus control animals", "setting": "segmental femoral defect", "value": "accelerated bone healing and fracture repair"}
    ]},
    {"molecule": "B1", "values": [
      {"measurement": "fracture healing", "setting": "fracture healing", "value": "improves fracture healing"}
    ]}
  ]
}
